The numbers were not newly measured in US20210120811A1, “AQUEOUS CAPSULE SUSPENSION CONCENTRATES CONTAINING A HERBICIDAL SAFENER AND A PESTICIDAL ACTIVE SUBSTANCE” (priority 2018, published 2021), which cites them from elsewhere.

SMILES strings stand for the structures.

On to `CC1(C)CON(Cc2ccc(Cl)cc2Cl)C1=O` [DCPMI, 2-[(2,4-dichlorophenyl)methyl]-4,4′-dimethyl-3-isoxazolidinone], for which the water solubility is reported as 39.5 ppm.
